What was measured:
aqueous solubility = assay type: physicochemical
Source text: An obstacle to the use of 3-biphenyl-4-yl-(2S)-[(4′-trifluoromethyl-biphenyl-4-carbonyl)-amino]-propionic acid in certain pharmacological forms is its aqueous solubility (less than 0.5 micrograms/milliliter (μg/mL)), which may make the bioavailability of biphenyl-4-yl-(2S)-[(4′-trifluoromethyl-biphenyl-4-carbonyl)-amino]-propionic acid lower than desirable. A composition of the present invention, having an increased dissolution rate, advantageously enhances the bioavailability of 3-biphenyl-4-yl-(2S)-[(4′-trifluoromethyl-biphenyl-4-carbonyl)-amino]-propionic acid, particularly when dosed orally.

[1] = Dissolution, USP method 2 (paddles at 75 rpm, 0.025 M NaH2PO4 with 2% SDS, pH 6.8); assay type: physicochemical; settings: 2×100 mg, pH 6.8, paddles 75 rpm
Description: Dissolution of the wet granulation tablets of Example 1 and the dry formulation capsules of Example 2 was determined using USP method 2 (paddles at 75 rpm, 0.025 M NaH2PO4 with 2% sodium dodecyl sulfate (SDS), pH 6.8).

For `O=C(N[C@@H](Cc1ccc(-c2ccccc2)cc1)C(=O)O)c1ccc(-c2ccc(C(F)(F)F)cc2)cc1` [3-biphenyl-4-yl-(2S)-[(4′-trifluoromethyl-biphenyl-4-carbonyl)-amino]-propionic acid], the aqueous solubility (aqueous solubility) was “less than 0.5 μg/mL”, the “Percent 3-Biphenyl-4-yl-(2S)-[(4′-trifluoromethyl-biphenyl-4-carbonyl)-amino]-propionic acid Dissolved” value ([1]; Time 0 min) was 0% and the “Percent 3-Biphenyl-4-yl-(2S)-[(4′-trifluoromethyl-biphenyl-4-carbonyl)-amino]-propionic acid Dissolved” value ([1]; Time 15 min) was 43.2%. For the same compound, the “Percent 3-Biphenyl-4-yl-(2S)-[(4′-trifluoromethyl-biphenyl-4-carbonyl)-amino]-propionic acid Dissolved” value ([1]; Time 30 min) was 57.0%, the “Percent 3-Biphenyl-4-yl-(2S)-[(4′-trifluoromethyl-biphenyl-4-carbonyl)-amino]-propionic acid Dissolved” value ([1]; Time 45 min) was 67.3% and the “Percent 3-Biphenyl-4-yl-(2S)-[(4′-trifluoromethyl-biphenyl-4-carbonyl)-amino]-propionic acid Dissolved” value ([1]; Time 60 min) was 73.9%.

— patent US20070082952A1, “Pharmaceutical compositions, methods of preparation thereof, and methods of treatment” (priority 2005, published 2007)
